Consider 1 compound from patent US10118954B2, “Apelin analogues” (University of Ulster, priority 2014, dated 2018).

Series [1] in a line: Degradation of apelin peptides by plasma from fasted normal NIH Swiss mice (rp-HPLC, MALDI-TOF MS). Format: in vitro ADME. In outline: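 Apelin peptides were incubated with plasma from fasted normal NIH Swiss mice for 4 h, and the reaction was stopped with TFA. Products were separated by C-8 rp-HPLC with detection at 214 nm. Peak fractions were identified by MALDI-TOF MS, giving fragment molecular weights and retention times.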

The next series concerns male NIH Swiss mice. Put plainly: Acute effects of apelin analogues on voluntary food intake. Format: in vivo. The settings on record: 100 nmol/kg i.p., FIG. 37. As to the method: Saline and peptide analogues were administered by intraperitoneal injection and cumulative food intake was monitored at 30, 60, 90 and 120 min after feeding.
Mice were habituated to a daily feeding regime of 3 h/day by progressively reducing the daily feeding period over 3 weeks. This was performed to ensure mice consumed entire daily food intake within 3 h, thereby allowing “peptide” effects to be measured over the known eating period of mice. On days 1 to 7, mice were supplied with food from 10:00 h to 20:00 h, on days 8 to 14, food was presented from 10:00 h to 19:00 h and on days 15 to 21, food was restricted to the 3 h interval from 10:00 h to 13:00 h. This regime was continued throughout the experimental period.
Mice that were habituated to a 3 h daily feeding regime were administered with an i.p. injection of saline (0.9% w/v NaCl) or apelin peptide (1-100 nmol/kg bw) at 10:00 h (n=8). Immediately following injection, food was initially weighed and then presented to the mice and subsequently weighed at 30 min intervals up to 180 min.

Series [2] deals with NIH Swiss mice fed a high-fat diet for 150 days. Put plainly: Acute and delayed i.p. glucose tolerance test, blood glucose and plasma insulin. Format: in vivo. The settings on record: acute, Table 4. In outline: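 Diet-induced obese-diabetic mice (high-fat diet 150 days, 18 h fasted) received i.p. glucose (18 mmol/kg) alone or with apelin analogues (25 nmol/kg), or analogues given 2, 8 or 16 h beforehand. Tail blood glucose and plasma insulin sampled at 0, 15, 30, 60, 105 min; n=8, mean±SEM.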

[3] abbreviates: plasma incubation 4 h, fragment identified by MALDI-TOF MS.
Setting [4] is: peptide 25 nmol/kg i.p. with glucose 18 mmol/kg.

Regarding `CSCC[C@H](NC(=O)[C@@H]1CCCN1C(=O)CNC(=O)[C@H](CCCCN)NC(=O)[C@H](Cc1cnc[nH]1)NC(=O)[C@H](CO)NC(=O)[C@H](CC(C)C)NC(=O)[C@H](CCCNC(=N)N)NC(=O)[C@@H]1CCCN1C(=O)[C@H](CCCNC(=N)N)NC(=O)[C@@H](N)CCC(N)=O)C(=O)N1CCC[C@H]1C(=O)N[C@@H](Cc1ccccc1)C(=O)O` [Apelin-13, reference compound], the remaining at 4 h, 263 µg/mL in series [1] (NIH Swiss, pH 7.4, mouse plasma, 37° C., 4 h, mean ± SEM, 2 experiments, read-out: % intact peptide (4 h)) worked out at 25.4 ± 1.5%. The half-life at 263 µg/mL in series [1] (NIH Swiss, pH 7.4, mouse plasma, estimated by linear regression of % intact peptide against time, read-out: Half-life (t1/2) (converted)) was 126 min. Moreover, in series [1] (mouse plasma, 1 = most stable), the “Rank order of stability” value is reported as 14. Further, in series [1] (setting [3]), the “Degradation fragment, Peak 1” value is “Apelin-13 (1-11)” and the “Degradation fragment, Peak 2” value is given as “Apelin-13 (1-12)”. Besides, the “Reduction of food intake” value in the series with male NIH Swiss mice (at 90 min) was determined as 16.7%. Further, the “Persistence of the food intake reduction” value with male NIH Swiss mice (over 3 h) is “not sustainable over 3 h”. In addition, the “Rank order on basis of anti-hyperglycaemic efficacy” value in series [2] came to 6. Further, in series [2] (setting [4]), the “Blood glucose as percent of glucose-alone control (lower = stronger glucose lowering)” value is reported as 92% ^ and the “Insulin secretion, where glucose alone = 100%” value was 111% ^.
